Test results from patent US10670605B2, “Cysteine reactive probes and uses thereof” (The Scripps Research Institute, priority 2015, dated 2020).

Key:
Test in all cases: Competitive isoTOP-ABPP in situ (fragment-treated cells)
Format in all cases: cell-based
[1] = molecular target: T1, cysteines in MDA-MB-231 and Ramos cells (Homo sapiens, UniProt Q5JPI3); settings: 200 μM, insitu
T1 sequence (Q5JPI3 1-329): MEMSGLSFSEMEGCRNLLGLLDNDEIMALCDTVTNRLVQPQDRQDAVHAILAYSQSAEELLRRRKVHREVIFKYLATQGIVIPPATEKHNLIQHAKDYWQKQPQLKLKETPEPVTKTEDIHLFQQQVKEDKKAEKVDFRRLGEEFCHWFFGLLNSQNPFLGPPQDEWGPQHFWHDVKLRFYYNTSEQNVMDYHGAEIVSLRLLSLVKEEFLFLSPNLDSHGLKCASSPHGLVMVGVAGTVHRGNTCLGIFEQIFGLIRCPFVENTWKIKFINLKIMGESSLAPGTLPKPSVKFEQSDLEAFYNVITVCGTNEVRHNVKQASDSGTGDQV

[2] = molecular target: cysteines in MDA-MB-231 and Ramos cells (Homo sapiens, UniProt P68366); settings: 200 μM, insitu
cysteines in MDA-MB-231 and Ramos cells (Homo sapiens, UniProt P68366), sequence (P68366 whole entry): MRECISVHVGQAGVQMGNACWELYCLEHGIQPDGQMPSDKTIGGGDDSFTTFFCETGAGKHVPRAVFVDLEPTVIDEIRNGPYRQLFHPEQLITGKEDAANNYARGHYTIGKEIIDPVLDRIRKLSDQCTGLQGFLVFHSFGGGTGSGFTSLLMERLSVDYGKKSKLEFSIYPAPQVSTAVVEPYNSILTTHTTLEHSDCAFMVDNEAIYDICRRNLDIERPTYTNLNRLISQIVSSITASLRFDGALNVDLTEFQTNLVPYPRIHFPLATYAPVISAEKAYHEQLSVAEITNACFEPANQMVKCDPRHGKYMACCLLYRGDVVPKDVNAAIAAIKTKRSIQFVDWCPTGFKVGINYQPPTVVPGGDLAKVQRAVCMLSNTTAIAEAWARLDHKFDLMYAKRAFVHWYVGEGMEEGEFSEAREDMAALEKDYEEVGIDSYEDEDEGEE

[3] = molecular target: T2, cysteines in MDA-MB-231 and Ramos cells (Homo sapiens, UniProt P51649); settings: 200 μM, insitu
T2 sequence (P51649 48-535): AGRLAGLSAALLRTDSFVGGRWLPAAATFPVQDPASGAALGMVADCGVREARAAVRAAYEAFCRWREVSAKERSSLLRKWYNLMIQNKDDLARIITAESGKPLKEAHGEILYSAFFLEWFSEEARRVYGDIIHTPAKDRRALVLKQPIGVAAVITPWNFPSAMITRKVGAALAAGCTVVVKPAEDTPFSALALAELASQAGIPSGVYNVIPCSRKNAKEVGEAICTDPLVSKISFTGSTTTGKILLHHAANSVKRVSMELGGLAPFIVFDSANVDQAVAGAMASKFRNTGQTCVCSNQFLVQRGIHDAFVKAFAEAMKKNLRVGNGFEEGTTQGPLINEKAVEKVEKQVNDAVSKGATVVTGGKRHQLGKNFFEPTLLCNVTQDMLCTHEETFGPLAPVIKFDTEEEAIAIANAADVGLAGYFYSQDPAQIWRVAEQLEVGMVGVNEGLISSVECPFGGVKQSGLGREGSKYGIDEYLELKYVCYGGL

[4] = molecular target: cysteines in MDA-MB-231 and Ramos cells (Homo sapiens, UniProt Q14137); settings: 200 μM, insitu
cysteines in MDA-MB-231 and Ramos cells (Homo sapiens, UniProt Q14137), sequence (Q14137 whole entry): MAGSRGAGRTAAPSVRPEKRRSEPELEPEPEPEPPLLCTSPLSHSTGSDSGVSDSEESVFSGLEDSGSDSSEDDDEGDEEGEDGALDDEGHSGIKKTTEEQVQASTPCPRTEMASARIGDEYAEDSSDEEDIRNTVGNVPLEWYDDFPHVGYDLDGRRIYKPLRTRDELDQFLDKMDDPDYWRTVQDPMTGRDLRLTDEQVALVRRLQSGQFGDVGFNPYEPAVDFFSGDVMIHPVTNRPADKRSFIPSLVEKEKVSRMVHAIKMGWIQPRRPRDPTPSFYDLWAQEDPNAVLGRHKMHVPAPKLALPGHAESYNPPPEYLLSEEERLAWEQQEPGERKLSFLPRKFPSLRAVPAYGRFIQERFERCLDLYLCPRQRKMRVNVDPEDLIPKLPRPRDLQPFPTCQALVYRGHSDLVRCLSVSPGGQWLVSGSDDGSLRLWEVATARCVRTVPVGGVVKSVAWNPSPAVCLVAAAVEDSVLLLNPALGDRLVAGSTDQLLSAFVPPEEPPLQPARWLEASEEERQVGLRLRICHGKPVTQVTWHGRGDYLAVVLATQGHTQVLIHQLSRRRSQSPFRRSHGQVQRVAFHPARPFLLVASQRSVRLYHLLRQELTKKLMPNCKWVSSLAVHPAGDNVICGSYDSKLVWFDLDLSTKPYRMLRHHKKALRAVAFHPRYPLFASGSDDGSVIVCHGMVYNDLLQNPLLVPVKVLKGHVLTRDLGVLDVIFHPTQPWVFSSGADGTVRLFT

[5] = molecular target: T3, cysteines in MDA-MB-231 and Ramos cells (Homo sapiens, UniProt Q9NTX5); settings: 200 μM, insitu, 231
T3 sequence (Q9NTX5 1-307): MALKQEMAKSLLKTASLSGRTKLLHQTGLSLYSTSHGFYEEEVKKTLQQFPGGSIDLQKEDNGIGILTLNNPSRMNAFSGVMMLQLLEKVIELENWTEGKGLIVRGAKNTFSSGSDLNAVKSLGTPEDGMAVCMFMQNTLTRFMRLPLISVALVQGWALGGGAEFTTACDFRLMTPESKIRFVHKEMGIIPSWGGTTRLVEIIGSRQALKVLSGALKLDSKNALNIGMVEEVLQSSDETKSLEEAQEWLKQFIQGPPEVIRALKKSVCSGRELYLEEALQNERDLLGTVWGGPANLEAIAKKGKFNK

[6] = molecular target: T4, cysteines in MDA-MB-231 and Ramos cells (Homo sapiens, UniProt A0AVT1); settings: 200 μM, insitu
T4 sequence (A0AVT1 1-1052): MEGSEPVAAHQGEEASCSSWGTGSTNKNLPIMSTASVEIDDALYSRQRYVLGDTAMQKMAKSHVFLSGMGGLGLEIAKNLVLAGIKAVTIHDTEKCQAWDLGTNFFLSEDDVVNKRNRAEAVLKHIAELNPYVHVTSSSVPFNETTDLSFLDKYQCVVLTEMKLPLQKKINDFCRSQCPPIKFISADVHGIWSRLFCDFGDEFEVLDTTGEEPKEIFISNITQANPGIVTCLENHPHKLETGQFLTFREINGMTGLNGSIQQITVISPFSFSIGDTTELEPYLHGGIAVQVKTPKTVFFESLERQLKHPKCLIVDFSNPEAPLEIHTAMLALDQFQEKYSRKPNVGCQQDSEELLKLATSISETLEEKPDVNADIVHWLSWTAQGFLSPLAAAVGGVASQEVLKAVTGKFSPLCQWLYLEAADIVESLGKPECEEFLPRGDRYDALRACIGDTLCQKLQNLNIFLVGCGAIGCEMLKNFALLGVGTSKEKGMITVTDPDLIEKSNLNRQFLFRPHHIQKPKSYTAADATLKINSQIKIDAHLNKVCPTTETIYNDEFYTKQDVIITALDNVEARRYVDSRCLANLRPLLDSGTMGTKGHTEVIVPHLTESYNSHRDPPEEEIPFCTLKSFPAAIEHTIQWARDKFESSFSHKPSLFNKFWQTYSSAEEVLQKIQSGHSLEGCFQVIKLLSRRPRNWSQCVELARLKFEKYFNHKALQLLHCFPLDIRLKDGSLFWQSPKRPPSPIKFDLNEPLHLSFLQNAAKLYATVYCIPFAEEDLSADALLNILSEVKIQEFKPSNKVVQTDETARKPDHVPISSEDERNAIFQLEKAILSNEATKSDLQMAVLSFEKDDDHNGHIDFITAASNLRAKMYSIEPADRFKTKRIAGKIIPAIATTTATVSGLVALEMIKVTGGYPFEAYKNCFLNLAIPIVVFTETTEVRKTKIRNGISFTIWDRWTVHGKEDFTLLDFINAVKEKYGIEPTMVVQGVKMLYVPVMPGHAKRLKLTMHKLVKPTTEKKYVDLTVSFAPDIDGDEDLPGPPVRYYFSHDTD

[7] = molecular target: cysteines in MDA-MB-231 and Ramos cells (Homo sapiens, UniProt Q9UNI6); settings: 200 μM, insitu, 231
cysteines in MDA-MB-231 and Ramos cells (Homo sapiens, UniProt Q9UNI6), sequence (Q9UNI6 whole entry): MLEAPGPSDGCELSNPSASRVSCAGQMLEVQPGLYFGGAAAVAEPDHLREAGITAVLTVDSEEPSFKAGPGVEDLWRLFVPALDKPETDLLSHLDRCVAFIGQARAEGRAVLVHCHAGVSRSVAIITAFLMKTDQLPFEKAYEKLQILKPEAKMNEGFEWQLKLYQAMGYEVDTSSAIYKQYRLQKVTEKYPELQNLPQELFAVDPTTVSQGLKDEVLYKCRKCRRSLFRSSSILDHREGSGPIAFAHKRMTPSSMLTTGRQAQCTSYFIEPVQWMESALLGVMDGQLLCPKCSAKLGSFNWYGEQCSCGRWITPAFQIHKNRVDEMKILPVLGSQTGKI

[8] = molecular target: cysteines in MDA-MB-231 and Ramos cells (Homo sapiens, UniProt Q96N67); settings: 200 μM, insitu, 231
cysteines in MDA-MB-231 and Ramos cells (Homo sapiens, UniProt Q96N67), sequence (Q96N67 whole entry): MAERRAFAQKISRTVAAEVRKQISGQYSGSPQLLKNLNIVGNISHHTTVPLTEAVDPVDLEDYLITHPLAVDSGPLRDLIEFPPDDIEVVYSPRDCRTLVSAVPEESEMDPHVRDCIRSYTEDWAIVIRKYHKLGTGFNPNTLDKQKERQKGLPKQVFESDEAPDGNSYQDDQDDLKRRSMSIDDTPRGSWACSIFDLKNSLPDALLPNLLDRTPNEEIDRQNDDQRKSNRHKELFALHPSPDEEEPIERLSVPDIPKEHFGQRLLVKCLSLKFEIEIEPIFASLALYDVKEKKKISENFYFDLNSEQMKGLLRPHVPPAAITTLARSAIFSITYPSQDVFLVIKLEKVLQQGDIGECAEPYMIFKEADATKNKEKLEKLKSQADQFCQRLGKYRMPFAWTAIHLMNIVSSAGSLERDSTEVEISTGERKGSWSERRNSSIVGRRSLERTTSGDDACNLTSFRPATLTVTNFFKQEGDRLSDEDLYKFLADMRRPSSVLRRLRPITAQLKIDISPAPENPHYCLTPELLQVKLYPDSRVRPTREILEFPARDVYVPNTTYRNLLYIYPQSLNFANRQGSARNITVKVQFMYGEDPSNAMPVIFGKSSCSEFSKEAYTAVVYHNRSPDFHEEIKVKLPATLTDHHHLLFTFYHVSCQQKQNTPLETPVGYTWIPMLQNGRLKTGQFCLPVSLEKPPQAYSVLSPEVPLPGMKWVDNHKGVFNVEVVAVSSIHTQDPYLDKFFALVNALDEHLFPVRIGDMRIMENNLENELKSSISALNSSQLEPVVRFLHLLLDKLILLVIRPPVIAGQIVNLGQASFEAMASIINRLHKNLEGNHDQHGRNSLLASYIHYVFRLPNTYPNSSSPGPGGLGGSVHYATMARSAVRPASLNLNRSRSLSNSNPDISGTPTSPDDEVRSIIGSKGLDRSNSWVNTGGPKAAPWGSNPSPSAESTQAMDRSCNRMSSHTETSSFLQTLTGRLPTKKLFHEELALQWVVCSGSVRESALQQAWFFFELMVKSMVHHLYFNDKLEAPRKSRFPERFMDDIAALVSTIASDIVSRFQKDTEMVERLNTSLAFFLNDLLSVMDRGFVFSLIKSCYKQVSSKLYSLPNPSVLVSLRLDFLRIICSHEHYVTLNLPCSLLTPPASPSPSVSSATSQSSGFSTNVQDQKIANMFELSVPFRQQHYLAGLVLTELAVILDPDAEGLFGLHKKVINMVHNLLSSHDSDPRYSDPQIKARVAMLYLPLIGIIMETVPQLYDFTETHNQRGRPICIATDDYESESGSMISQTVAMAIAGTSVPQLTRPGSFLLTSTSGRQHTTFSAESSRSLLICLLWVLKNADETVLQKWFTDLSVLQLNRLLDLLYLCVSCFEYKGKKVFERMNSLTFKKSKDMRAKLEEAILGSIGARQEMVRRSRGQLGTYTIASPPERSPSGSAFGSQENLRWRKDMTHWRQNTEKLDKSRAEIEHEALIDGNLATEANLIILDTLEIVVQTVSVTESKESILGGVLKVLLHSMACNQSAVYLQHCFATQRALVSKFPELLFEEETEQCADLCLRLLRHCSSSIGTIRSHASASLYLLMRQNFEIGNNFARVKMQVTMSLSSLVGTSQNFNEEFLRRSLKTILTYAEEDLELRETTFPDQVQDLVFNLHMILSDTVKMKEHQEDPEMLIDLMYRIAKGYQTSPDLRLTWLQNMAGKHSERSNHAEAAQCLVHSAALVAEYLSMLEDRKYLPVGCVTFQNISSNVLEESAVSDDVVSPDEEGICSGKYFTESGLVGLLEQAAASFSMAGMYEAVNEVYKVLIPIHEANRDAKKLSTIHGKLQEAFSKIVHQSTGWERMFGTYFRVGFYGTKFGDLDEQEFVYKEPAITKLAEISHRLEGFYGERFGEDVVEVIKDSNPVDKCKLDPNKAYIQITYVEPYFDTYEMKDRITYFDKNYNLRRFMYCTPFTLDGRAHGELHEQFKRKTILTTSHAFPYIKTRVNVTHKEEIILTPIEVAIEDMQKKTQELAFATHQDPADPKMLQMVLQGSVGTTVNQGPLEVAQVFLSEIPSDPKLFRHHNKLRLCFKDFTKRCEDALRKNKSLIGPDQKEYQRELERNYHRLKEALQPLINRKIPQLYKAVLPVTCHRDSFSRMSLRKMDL

[9] = molecular target: cysteines in MDA-MB-231 and Ramos cells (Homo sapiens, UniProt P45984); settings: 200 μM, insitu
cysteines in MDA-MB-231 and Ramos cells (Homo sapiens, UniProt P45984), sequence (P45984 whole entry): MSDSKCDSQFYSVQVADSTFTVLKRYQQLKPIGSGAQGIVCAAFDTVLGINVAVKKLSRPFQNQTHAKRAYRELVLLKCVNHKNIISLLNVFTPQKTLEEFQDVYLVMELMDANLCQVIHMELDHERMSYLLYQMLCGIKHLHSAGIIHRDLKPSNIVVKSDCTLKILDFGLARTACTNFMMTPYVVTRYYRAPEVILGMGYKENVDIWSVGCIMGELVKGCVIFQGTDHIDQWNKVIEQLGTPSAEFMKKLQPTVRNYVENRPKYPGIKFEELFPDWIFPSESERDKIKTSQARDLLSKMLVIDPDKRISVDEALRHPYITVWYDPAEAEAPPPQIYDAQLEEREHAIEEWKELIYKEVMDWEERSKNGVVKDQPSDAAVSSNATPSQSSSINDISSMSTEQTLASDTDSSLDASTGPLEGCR

Compound | isoTOP-ABPP ratio P68366_C54 [2]; 231 | isoTOP-ABPP ratio P51649_C340 [3]; 231 | isoTOP-ABPP ratio Q9NTX5_C133 [5] | isoTOP-ABPP ratio Q9UNI6_C265 [7] | isoTOP-ABPP ratio Q96N67_C2125 [8] | further results
O=C(CCl)NC12CC3CC(CC(C3)C1)C2 [compound 21] | 0.8 | 1.2 | 1.1 |  |  | isoTOP-ABPP ratio, cysteine Q5JPI3_C308 [1]; 231: 0.9; isoTOP-ABPP ratio, cysteine Q14137_C404 [4]; 231: 1.1
CC(C)CCOCCNC(=O)CCl [compound 27] | 0.3 | 0.9 | 1.5 | 0.6 | 0.9 | isoTOP-ABPP ratio A0AVT1_C347 [6]; 231: 0.8; isoTOP-ABPP ratio Q5JPI3_C308 [1]; 231: 0.7; isoTOP-ABPP ratio Q14137_C404 [4]; 231: 0.6; isoTOP-ABPP ratio P45984_C177 [9]; 231: 0.5
COc1ccccc1OCCNC(=O)CCl [compound 28] |  |  |  | 0.8 |  | 
O=C(CCl)N1CCN(CC(=O)N2CCOCC2)CC1 [compound 29] |  |  |  |  |  | isoTOP-ABPP ratio Q5JPI3_C308 ([1]; ramos): 1.3; isoTOP-ABPP ratio P68366_C54 ([2]; ramos): 1.0; isoTOP-ABPP ratio P51649_C340 ([3]; ramos): 1.0; isoTOP-ABPP ratio Q14137_C404 ([4]; ramos): 1.5; isoTOP-ABPP ratio P45984_C177 ([9]; ramos): 1.7
C=CC(=O)N(Cc1cccnc1)c1cc(C(F)(F)F)cc(C(F)(F)F)c1 [compound 31] |  |  |  |  | 0.8 | isoTOP-ABPP ratio A0AVT1_C347 ([6]; ramos): 1.9; isoTOP-ABPP ratio P68366_C54 ([2]; ramos): 1.1; isoTOP-ABPP ratio P51649_C340 ([3]; ramos): 1.0
C=CC(=O)Nc1cc(F)c(N2CCN(C(=O)OC(C)(C)C)CC2)c(F)c1 [compound 38] | 2.0 |  |  | 1.0 | 1.5 | 
Cc1ccc(C=C(C#N)C(=O)NCCN2CCOCC2)cc1 [compound 41] |  |  |  | 1.0 | 0.7 | isoTOP-ABPP ratio A0AVT1_C347 [6]; 231: 0.6; isoTOP-ABPP ratio Q5JPI3_C308 [1]; 231: 0.7; isoTOP-ABPP ratio P45984_C177 [9]; 231: 0.5
CC1CCc2ccccc2N1C(=O)CCl (centres unmarked) [compound 45] |  | 2.4 | 4.2 | 7.5 |  | 
